According to patent US20240052005A1, “IMPROVED CELL-PENETRATING PEPTIDES AND FUSION PROTEINS” (ANASTASIS BIOTEC LIMITED, priority 2020, published 2024):
“Also recorded” adds a separate entry of the source.

B1: MAML: unmodified recombinant MAML protein bearing a HIS-Tag (protein)
chain: LPRHSAVMERLRRRIELCRRHHSTCEARYEAVSPERLELERQHTFALHQRCIQAKAKRAGKH
modifications: also: His-tag, place not given here

Key:
Human cell-line SKOV3 = assay: Cell transduction visualised with FITC-conjugated anti-HIS antibody; type: cell-based; conditions: 0.01 mg/mL, 1 hour at 37° C.
Experimental: Human cell-line SKOV3 was cultured in DMEM media with 10% serum at 37° C., 5% CO2 until 40% confluency in a 96-well culture dish. The media was removed and replaced with 0.1 mL tissue culture-grade PBS and unmodified ANTP, unmodified MAML and ANTP-PEG-2-MAML were added to a final concentration of 0.01 mg/mL. Cell transduction was allowed to proceed for 1 hour at 37° C. Next, the PBS was removed and replaced with DMEM/serum and the cells were grown overnight as above. The transduced cells were then fixed using 1% glutaraldehyde at room temperature for 1 hr and permeabilized using Saponin at 1% concentration for 20 minutes at room temperature. Cells were then washed with PBS and visualized using FITC-conjugated-anti-HIS antibody (Miltenyi Biotech). Imaging was done using a GE-Incell-500 analyser visualizing the green fluorescence of the FITC at around 525 nm. […] This confirms the functionality of the ANTP-PEG-2-MAML protein.

SKOV-3 tumour cells = assay: Intranuclear trafficking into cancer cells, scored by immunofluorescence; type: cell-based, human; conditions: free protein alone
Description: FIG. 2 Intranuclear trafficking of ANTP and ANTP-p21 conjugates into the nuclei of SKOV-3 tumour cells.
Cells, into which the protein had penetrated intranuclearly, were scored positive by immunofluorescence.

Molecule	MAML-His protein seen inside the cell cytosol and cell nucleus (Human cell-line SKOV3)	cellular uptake / translocation to the nuclei (SKOV-3 tumour cells)
ANTP: Antennapedia cell-penetrating peptide, 60 amino acid sequence, recombinant	not	–
p21: free tumour-suppressor protein p21	–	No cellular uptake; also recorded: did not translocate to the nuclei
B1	not	–
